Measurements from article PMC3805332, “Synthesis of α-Glucan in Mycobacteria Involves a Hetero-octameric Complex of Trehalose Synthase TreS and Maltokinase Pep2” (ACS Chemical Biology, 2013).

Experiments:
[1] = target: TreS (trehalose synthase) (Mycobacterium tuberculosis, UniProt P9WQ19)
[2] = target: T1, M. smegmatis TreS (Mycolicibacterium smegmatis, UniProt A0R6E0); experiment: hexokinase/pyruvate kinase/lactate dehydrogenase coupled NADH fluorescence; assay type: biochemical; settings: hydrolysis to glucose; HEPES-NaOH pH 7.5, 1 mM MgCl2, trehalose 0-25 mM, TreS 0.4 μM
T1 construct: preparation of M. smegmatis TreS not described in main text
T1 sequence (A0R6E0 1-593): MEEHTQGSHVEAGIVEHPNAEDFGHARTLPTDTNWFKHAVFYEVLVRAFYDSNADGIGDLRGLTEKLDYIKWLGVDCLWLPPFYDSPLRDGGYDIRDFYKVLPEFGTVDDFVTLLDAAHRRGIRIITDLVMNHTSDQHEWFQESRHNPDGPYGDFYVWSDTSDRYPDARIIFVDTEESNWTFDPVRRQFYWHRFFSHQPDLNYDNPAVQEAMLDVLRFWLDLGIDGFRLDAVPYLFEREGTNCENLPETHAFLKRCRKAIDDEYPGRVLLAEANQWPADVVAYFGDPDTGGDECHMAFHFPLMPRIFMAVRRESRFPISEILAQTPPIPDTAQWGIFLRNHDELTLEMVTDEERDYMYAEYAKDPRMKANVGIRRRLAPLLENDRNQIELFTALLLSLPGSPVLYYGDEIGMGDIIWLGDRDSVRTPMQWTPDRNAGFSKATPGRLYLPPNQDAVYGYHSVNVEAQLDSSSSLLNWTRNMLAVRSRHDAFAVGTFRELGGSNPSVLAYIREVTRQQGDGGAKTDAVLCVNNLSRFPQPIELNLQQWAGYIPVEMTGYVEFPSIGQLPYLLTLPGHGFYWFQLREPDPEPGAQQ

TreS (trehalose synthase), sequence (P9WQ19 whole entry): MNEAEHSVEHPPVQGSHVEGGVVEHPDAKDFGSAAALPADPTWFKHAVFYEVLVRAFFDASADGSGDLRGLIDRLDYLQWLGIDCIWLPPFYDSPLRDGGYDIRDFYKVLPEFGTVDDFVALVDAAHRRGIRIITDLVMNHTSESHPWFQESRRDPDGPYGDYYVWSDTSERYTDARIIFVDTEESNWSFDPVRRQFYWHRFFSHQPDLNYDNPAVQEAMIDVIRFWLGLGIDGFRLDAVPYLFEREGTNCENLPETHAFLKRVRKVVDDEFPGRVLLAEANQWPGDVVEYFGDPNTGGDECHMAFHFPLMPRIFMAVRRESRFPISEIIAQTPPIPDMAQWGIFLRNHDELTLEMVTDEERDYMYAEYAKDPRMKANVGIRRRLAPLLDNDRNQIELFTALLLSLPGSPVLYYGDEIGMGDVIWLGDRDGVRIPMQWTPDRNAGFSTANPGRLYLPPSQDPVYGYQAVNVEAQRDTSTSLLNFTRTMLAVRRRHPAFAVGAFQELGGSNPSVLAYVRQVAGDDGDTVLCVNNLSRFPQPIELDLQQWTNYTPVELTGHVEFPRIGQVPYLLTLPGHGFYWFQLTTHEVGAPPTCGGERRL

Structure (SMILES)	end-point thin layer chromatography [1]	hexokinase/pyruvate kinase/lactate dehydrogenase coupled NADH fluorescence [2]
OC[C@H]1O[C@H](O[C@H]2[C@H](O)[C@@H](O)C(O)O[C@@H]2CO)[C@H](O)[C@@H](O)[C@@H]1O (stereo partly drawn) [maltose]	Incubation of TreS with trehalose or maltose interconverted the substrates	–
OC[C@H]1O[C@H](O[C@H]2O[C@H](CO)[C@@H](O)[C@H](O)[C@H]2O)[C@H](O)[C@@H](O)[C@@H]1O [trehalose]	Incubation of TreS with trehalose or maltose interconverted the substrates	we monitored M. smegmatis TreS-catalyzed conversion of trehalose to glucose in an enzyme-coupled continuous assay
